Paper PMC3391563 (2011)
Where two headings read alike, the source gives them in different places.

Assays:
[1] = target: T1, Af-OMO (ornithine monooxygenase, SidA) (Aspergillus fumigatus, UniProt E9QYP0); assay: stopped-flow UV/vis, concentration dependence of kobs; type: biochemical
[2] = target: T1, Af-OMO (ornithine monooxygenase, SidA); assay: hydroxylation coupling ratio; type: biochemical
[3] = target: T1, Af-OMO (ornithine monooxygenase, SidA); assay: stopped-flow UV/vis, concentration dependence of kobs; type: biochemical; remark: listed apart in the source
[4] = target: T1, Af-OMO (ornithine monooxygenase, SidA); assay: stopped-flow UV/vis, concentration dependence of kobs for FAD-OOH formation; type: biochemical
[5] = target: T1, Af-OMO (ornithine monooxygenase, SidA)
[6] = target: T1, Af-OMO (ornithine monooxygenase, SidA); assay: stopped-flow; type: biochemical
[7] = target: T1, Af-OMO (ornithine monooxygenase, SidA); assay: stopped-flow UV/vis, concentration dependence of kobs for FAD-OOH formation; type: biochemical; remark: listed apart in the source

T1 sequence (E9QYP0 whole entry): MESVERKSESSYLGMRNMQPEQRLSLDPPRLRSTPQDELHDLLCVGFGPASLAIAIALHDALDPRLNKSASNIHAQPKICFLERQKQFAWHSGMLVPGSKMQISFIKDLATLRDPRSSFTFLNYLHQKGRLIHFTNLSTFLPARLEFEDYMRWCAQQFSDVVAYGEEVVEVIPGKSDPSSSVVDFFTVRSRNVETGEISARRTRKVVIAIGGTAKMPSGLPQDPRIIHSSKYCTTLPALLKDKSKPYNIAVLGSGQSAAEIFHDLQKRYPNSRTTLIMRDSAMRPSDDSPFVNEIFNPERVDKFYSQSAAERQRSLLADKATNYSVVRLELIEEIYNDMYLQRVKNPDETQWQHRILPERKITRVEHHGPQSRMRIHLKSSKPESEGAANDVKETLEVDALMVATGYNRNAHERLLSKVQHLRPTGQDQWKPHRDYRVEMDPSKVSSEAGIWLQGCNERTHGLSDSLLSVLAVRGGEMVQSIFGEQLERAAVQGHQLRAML

SMILES: NCCCC[C@H](N)C(=O)O [L-Lys, L-lysine]
- Kd [1]: 130 ± 30 µM

SMILES: NCCC[C@@H](N)C(=O)O [D-Orn, D-ornithine]
- compd-OH: NADPH ^c [2]: 0.63 (0.03)

SMILES: NCCC[C@H](N)C(=O)O [L-Orn, L-ornithine]
- Kd [3]: 310 ± 40 µM

SMILES: N=C(N)NCCC[C@H](N)C(=O)O [L-Arg, L-arginine]
- Kd [4]: 620 ± 70 µM

SMILES: NCCCCN [DAB, 1,4-diaminobutane]
- compd-OH: NADPH ^c [5]: 0.59 (0.02)

SMILES: N[C@@H](CCCNO)C(=O)O [L-Orn-N^εOH, N^ε-hydroxy-L-ornithine]
- kFAD (s^-1) [6]: 0.34 (0.01) s^-1

SMILES: NC(=O)NCCC[C@H](N)C(=O)O [L-Citr, L-citrulline]
- Kd [7]: 4400 ± 900 µM
